From US20070148232A1, “Stabilized pharmaceutical solid compositions of low-solubility drugs and poloxamers, and stabilizing polymers” (Pfizer Inc., priority 2003, published 2007)
≈ marks a conversion by molar mass, not a printed value.

Legend:
Format in all cases: physicochemical
[1] = in vitro dissolution test of Drug 2 compositions in PBS; settings: dose 1000 μg/mL; for AUC90 / MDC90: initial ninety minutes; for AUC / Drug 2 Concentration: PBS, 37° C.
Protocol: The solid composition of Example 1 was evaluated in an in vitro dissolution test as follows. For each test, the composition was added to microcentrifuge tubes in duplicate. A 4.21 mg sample of the composition was added to each tube for a total concentration of 1000 μg/mL drug, if all of the drug had dissolved. The tubes were placed in a 37° C. temperature-controlled chamber, and 1.8 mL PBS containing 0.5 wt % sodium taurocholic acid and 1-palmitoyl-2-oleyl-sn-glycero-3-phosphocholine (NaTC/POPC, with a […] weight ratio) at pH 6.5 and 290mOsm/kg (model fasted duodenal solution, “MFDS”) was added to each respective tube. The samples were quickly mixed using a vortex mixer for about 60 seconds. The samples were centrifuged at 13,000 G at 37° C. for 1 minute. The resulting supernatant solution was then sampled and diluted 1:6 (by volume) with methanol and then analyzed by high-performance liquid chromatography (HPLC). The contents of each respective tube were mixed on the vortex mixer and allowed to stand undisturbed at 37° C. until the next sample was taken. Samples were collected at 4, 10, 20, 40, 90, and 1200 minutes.
A sufficient amount of the composition was added to each tube (in duplicate) for a total concentration of 1000 μg/mL drug, if all of the drug had dissolved. The tubes were placed in a 37° C. temperature-controlled chamber, and 1.8 mL PBS was added.
Control 5 (C5) consisted of crystalline Drug 2 alone, tested in PBS, and a sufficient amount of material was added so that the concentration of drug would have been 1000 μg/mL, if all the drug had dissolved.
A sufficient amount of the composition was added to each tube (in duplicate) for a total concentration of 1000 μg/mL drug, if all of the drug has dissolved. The tubes were placed in a 37° C. temperature-controlled chamber, and 1.8 mL PBS was added.
As a control (C6), a composition consisting of 25 wt % Drug 2 and 75 wt % HPMCAS-HF was formed using the rotoevaporation process described for Example 6. The composition was tested in vitro, and a sufficient amount of material was added to PBS so that the concentration of drug would have been 1000 μg/mL, if all of the drug had dissolved.

[2] = glass transition temperature (Tg) by DSC; settings: at less than 5% RH
From the text: A solid composition was formed by a spray-drying process as follows. […] A spray solution was formed containing 2.5 wt % Viracept, 1.5 wt % Pluronic F127, 1.0 wt % HPMC, 85.5 wt % methanol, and 9.5 wt % water. The solution was mixed until the polymers and drug had all dissolved. The spray solution was pumped using a high-pressure pump to a spray drier (a Niro type XP Portable Spray-Dryer with a Liquid-Feed Process Vessel (“PSD-1”)), equipped with a pressure nozzle (model WG-126, from Delavan LTV). The PSD-1 was equipped with a 5-foot 9-inch chamber extension. The chamber extension was added to the spray dryer to increase the vertical length of the dryer. The added length increased the residence time within the dryer, which allowed the product to dry before reaching the angled section of the spray dryer. The spray drier was also equipped with a 316 SS circular diffuser plate with 1/16-inch drilled holes, having a 1% open area. […] The Tg of the resulting composition was determined by DSC to be about 107° C. at less than 5% RH.
Solid compositions containing Drug 1 were prepared using various amounts of poloxamer 407 and the stabilizing polymers hydroxypropyl methyl cellulose and hydroxypropyl methyl cellulose acetate succinate as described below. […] The Tg of each composition, measured at a relative humidity of less than 10%, is also included in Table 6.

[3] = solubility in PBS, pH 6.5; settings: pH 6.5, aqueous buffer
[4] = in vitro dissolution test of Drug 1 compositions in PBS; settings: dose 1000 μg/mL; for AUC / Drug 1 Concentration: PBS, 37° C.
Protocol: The solid composition of Example 1 was evaluated in an in vitro dissolution test as follows. For each test, the composition was added to microcentrifuge tubes in duplicate. […] The samples were quickly mixed using a vortex mixer for about 60 seconds. The samples were centrifuged at 13,000 G at 37° C. for 1 minute. The resulting supernatant solution was then sampled and diluted 1:6 (by volume) with methanol and then analyzed by high-performance liquid chromatography (HPLC). The contents of each respective tube were mixed on the vortex mixer and allowed to stand undisturbed at 37° C. until the next sample was taken. Samples were collected at 4, 10, 20, 40, 90, and 1200 minutes. […] The tubes were placed in a 37° C. temperature-controlled chamber, and 1.8 mL PBS was added. As a control (C4), crystalline Drug 1 alone was tested in PBS and a sufficient amount of material was added so that the concentration of drug would have been 1000 μg/mL, if all of the drug had dissolved.

[5] = in vitro dissolution test of Drug 1 compositions in MFDS; settings: dose 1000 μg/mL; for AUC / Drug 1 Concentration: MFDS, 37° C.
Protocol: The solid composition of Example 1 was evaluated in an in vitro dissolution test as follows. For each test, the composition was added to microcentrifuge tubes in duplicate. […] The samples were quickly mixed using a vortex mixer for about 60 seconds. The samples were centrifuged at 13,000 G at 37° C. for 1 minute. The resulting supernatant solution was then sampled and diluted 1:6 (by volume) with methanol and then analyzed by high-performance liquid chromatography (HPLC). The contents of each respective tube were mixed on the vortex mixer and allowed to stand undisturbed at 37° C. until the next sample was taken. Samples were collected at 4, 10, 20, 40, 90, and 1200 minutes. As a control (C1), crystalline Drug 1 alone was added 1.8 mL of MFDS, at a sufficient amount so that the concentration of drug would have been 1000 μg/mL, if all of the drug had dissolved. […] Control C2 consisted of 50 wt % Drug 1 and 50 wt % HPMC. The composition was formed by first forming a spray solution consisting of […] Drug 1 and 250 mg HPMC in 58.7 gm of a 50.7:8 w/w mixture of acetone:water. This solution was pumped into a “mini” spray-drying apparatus via a Cole Parmer 74900 series rate-controlling syringe pump at a rate of 70 ml/hr. The spray solution was atomized through a Spraying Systems Co. two-fluid nozzle, Model No. SU1A, using a heated stream of nitrogen at a flow rate of 1 SCFM. The spray solution was sprayed into an 11-cm diameter stainless steel chamber. The heated gas entered the chamber at an inlet temperature of 110° C. and exited at ambient temperature. The resulting solid composition was collected on filter paper, dried under vacuum, and stored in a desiccator. This composition was tested in a dissolution test using the procedures described above except that a sufficient amount of the composition was added so that the concentration if all of the drug had dissolved would have been 3000 μg/mL. The stability of the solid composition of Example 1 was evaluated in an accelerated storage test. The composition was stored under elevated temperature and humidity conditions to increase the rate of physical changes occurring in the material in order to simulate a longer storage interval in a typical storage environment. A sample of the composition was stored for 3 weeks at 40° C./75% RH.

[6] = Drug 1, PBS, initial ninety minutes
[7] = Drug 1, MFDS, initial ninety minutes

In the case of `CCOC(=O)N1c2ccc(C(F)(F)F)cc2[C@@H](N(Cc2cc(C(F)(F)F)cc(C(F)(F)F)c2)C(=O)OC)C[C@H]1CC` [Drug 2, [2R,4S] 4-[(3,5-bis-trifluoromethyl-benzyl)-methoxycarbonyl-amino]-2-ethyl-6-trifluoromethyl-3,4-dihydro-2H-quinoline-1-carboxylic acid ethyl ester], the C1200 ([1]; Drug 2, PBS, concentration of drug at 1200 minutes) is reported as <1 µg/mL, the AUC90 ([1]; Drug 2, PBS) is reported as <100 µg·min/mL and the MDC90 ([1]; Drug 2, PBS) is reported as <1 µg/mL. The AUC ([1]; 0 min) was <100 µg·min/mL, the “Drug 2 Concentration” value ([1]; 0 min) was <1 µg/mL and the AUC ([1]; 4 min) was <100 µg·min/mL. The “Drug 2 Concentration” value ([1]; 4 min) was <1 µg/mL, the AUC ([1]; 10 min) was <100 µg·min/mL and the “Drug 2 Concentration” value ([1]; 10 min) was <1 µg/mL. For the same compound, the AUC ([1]; 20 min) was <100 µg·min/mL, the “Drug 2 Concentration” value ([1]; 20 min) was <1 µg/mL and the AUC ([1]; 40 min) was <100 µg·min/mL. For the same compound, the “Drug 2 Concentration” value ([1]; 40 min) was <1 µg/mL, the AUC ([1]; 90 min) was <100 µg·min/mL and the “Drug 2 Concentration” value ([1]; 90 min) was <1 µg/mL. For the same compound, the AUC ([1]; 1200 min) was <100 µg·min/mL, the “Drug 2 Concentration” value ([1]; 1200 min) was <1 µg/mL and the Tg [2] was “about 30 °C”. For the same compound, the solubility [3] was < 1 µg/mL.
Compound `Cc1c(O)cccc1C(=O)N[C@@H](CSc1ccccc1)[C@H](O)CN1C[C@H]2CCCC[C@H]2C[C@H]1C(=O)NC(C)(C)C` [Drug 1, N-(1,1-dimethylethyl)decahydro-2-[(2R,3R)-2-hydroxy-3[(3-hydroxy-2-methylbenzoyl)amino]-4-(phenylthio)butyl]-3-isoquinolinecarboxamide (3s, 4aS, 8aS)-monomethanesulfonate] has an AUC90 [4, 6] of 285 µg·min/mL, an MDC90 [4, 6] of 6 µg/mL and an AUC ([4]; 0 min) of 0 µg·min/mL. The “Drug 1 Concentration” value ([4]; 0 min) was 0 µg/mL, the AUC ([4]; 4 min) was 11 µg·min/mL and the “Drug 1 Concentration” value ([4]; 4 min) was 5 µg/mL. For the same compound, the AUC ([4]; 10 min) was 46 µg·min/mL, the “Drug 1 Concentration” value ([4]; 10 min) was 6 µg/mL and the AUC ([4]; 20 min) was 106 µg·min/mL. For the same compound, the “Drug 1 Concentration” value ([4]; 20 min) was 6 µg/mL, the AUC ([4]; 40 min) was 180 µg·min/mL and the “Drug 1 Concentration” value ([4]; 40 min) was 2 µg/mL. The AUC ([4]; 90 min) was 285 µg·min/mL, the “Drug 1 Concentration” value ([4]; 90 min) was 2 µg/mL and the AUC ([4]; 1200 min) was 12,730 min*μg/mL. The “Drug 1 Concentration” value ([4]; 1200 min) was 20 µg/mL, the AUC90 ([1]; Drug 2, PBS) was <100 µg·min/mL and the MDC90 ([1]; Drug 2, PBS) was <1 µg/mL. For the same compound, the AUC90 [5, 7] was 9,500 min*μg/mL, the MDC90 [5, 7] was 118 µg/mL and the AUC ([5]; 0 min) was 0 µg·min/mL. The “Drug 1 Concentration” value ([5]; 0 min) was 0 µg/mL, the AUC ([5]; 4 min) was 160 µg·min/mL and the “Drug 1 Concentration” value ([5]; 4 min) was 80 µg/mL. For the same compound, the AUC ([5]; 10 min) was 700 µg·min/mL, the “Drug 1 Concentration” value ([5]; 10 min) was 98 µg/mL and the AUC ([5]; 20 min) was 1,700 min*μg/mL. The “Drug 1 Concentration” value ([5]; 20 min) was 102 µg/mL, the AUC ([5]; 40 min) was 3,800 min*μg/mL and the “Drug 1 Concentration” value ([5]; 40 min) was 108 µg/mL. The AUC ([5]; 90 min) was 9,500 min*μg/mL, the “Drug 1 Concentration” value ([5]; 90 min) was 118 µg/mL and the AUC ([5]; 1200 min) was 247,000 min*μg/mL. For the same compound, the “Drug 1 Concentration” value ([5]; 1200 min) was 310 µg/mL, the Tg [2] was 119 °C and the solubility [3] was ~20 µg/mL (≈ 35.2 µM).
